Experiments:
CDK1 = target: T1, CDK1 (Homo sapiens, UniProt P06493); experiment: Binding affinity to CDK1 (KdELECT assay)
T1 construct: made in house; host or cells: T7 phage in E. coli BL21-derived host, or HEK-293 cells
Procedure: Exemplary compounds were tested for ability to bind to CDK1.
Compounds were tested using a KdELECT assay. Kinase-tagged T7 phage strains were prepared in an E. coli host derived from the BL21 strain. E. coli were grown to log-phase and infected with T7 phage and incubated with shaking at 32° C. until lysis. The lysates were centrifuged and filtered to remove cell debris. The remaining kinases were produced in HEK-293 cells and subsequently tagged with DNA for qPCR detection. Streptavidin-coated magnetic beads were treated with biotinylated small molecule ligands for 30 minutes at room temperature to generate affinity resins for kinase assays. The liganded beads were blocked with excess biotin and washed with blocking buffer (SeaBlock (Pierce), 1% BSA, 0.05% Tween 20, 1 mM DTT) to remove unbound ligand and to reduce non-specific binding. Binding reactions were assembled by combining kinases, liganded affinity beads, and test compounds in 1× binding buffer (20% SeaBlock, 0.17×PBS, 0.05% Tween 20, 6 mM DTT). Test compounds were prepared as 11 IX stocks in 100% DMSO. Kd values were determined using an 11-point 3-fold compound dilution series with three DMSO control points. All compounds for Kd measurements are distributed by acoustic transfer (non-contact dispensing) in 100% DMSO. […] The kinase concentration in the eluates was measured by qPCR.

[1] = tested on: T-Rex 293 cells lacking increased expression of estrogen receptor alpha protein; experiment: Cellular growth inhibition assay, T-Rex 293 cells, (−) doxycycline; format: cell-based; settings: T-REx-293, 72 h, Table 7-B; T-Rex 293 cells without doxycycline (lacking increased ERα expression); 72 hours; CellTiter-Glo; read-out: (−) Dox GI50
Procedure, shortened: (§1)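 Viability read-out was CellTiter-Glo 2.0 luminescence after 72 h compound exposure, normalized to zero luminescence and fitted by four-parameter regression to give GI50. Cells were an ERα-inducible T-Rex 293 clone cultured with or without 3 ng/mL doxycycline in charcoal-stripped, phenol red-free medium.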

[2] = tested on: MCF7 cells (ECACC #86012803); experiment: Cellular growth inhibition assay, MCF7 cells purchased from ECACC; format: cell-based; settings: Homo sapiens, 144 h; MCF7 cells purchased from ECACC (#86012803); six days treatment; CellTiter-Glo 2.0 viability
Procedure: Exemplary compounds were tested for the ability to inhibit the proliferation of MCF7 cells.
MCF7 cells (ATCC #HTB-22 or ECACC #86012803) were cultured in RPMI 1640 medium supplemented with 10% heat-inactivated fetal bovine serum, 1% pen-strep, and 0.2 U/ml insulin. Cells were seeded in 25 μL of RPMI 1640 medium supplemented with 10% heat-inactivated fetal bovine serum, 1% pen-strep, 0.2 U/ml insulin in poly-D-lysine treated, black clear-bottom 384-well plates at 225 cells/well for MCF7 cells purchased from ECACC or 1,500 cells/well for MCF7 cells purchased from ATCC. Following seeding, plates were spun at 300×g for 30 seconds and cultured at 37° C. with 5% CO2 in a humidified tissue culture incubator.
At 24 hours after seeding, compounds were titrated in 100% DMSO and diluted in RPMI 1640 medium supplemented with 10% heat-inactivate fetal bovine serum, 1% pen-strep, and 0.2 U/ml insulin. A 25 μL aliquot of the compound/media mixture was added to cells, bringing the total volume in each well to 50 μL. An equal volume of DMSO without compound was used as a negative control. After treatment, plates were spun at 300×g for 30 seconds, then cultured at 37° C. with 5% CO2 for six days in a humidified tissue culture incubator.
On Day 6 of treatment, cell viability was quantified with CellTiter-Glo 2.0 reagent (Promega). Plates were equilibrated to room temperature for 30 minutes, then 25 μL of CellTiter-Glo 2.0 reagent was added to cells, bringing the total volume in each well to 75 μL. After reagent was added, plates were mixed on a shaker for two minutes at 500 rpm and then incubated at room temperature for 10 minutes. Following incubation, plates were spun at 3,000×g for 30 seconds, sealed with an optical adhesive cover, and luminescence readings were measured with an EnVision Plate Reader.
Data was normalized to 0 luminescence for baseline. A four-parameter, non-linear regression curve fit was applied to dose-response data in GraphPad Prism data analysis software to determine the half maximal growth inhibitory concentration (GI50) for each compound.

[3] = tested on: T-Rex 293 cells having increased expression of estrogen receptor alpha protein; experiment: Cellular growth inhibition assay, T-Rex 293 cells, (+) doxycycline; format: cell-based; settings: T-REx-293, 72 h, Table 7-B; T-Rex 293 cells with doxycycline (increased ERα expression); 72 hours; CellTiter-Glo; read-out: (+) Dox GI50
Procedure, shortened: as §1

T1 sequence (P06493 whole entry): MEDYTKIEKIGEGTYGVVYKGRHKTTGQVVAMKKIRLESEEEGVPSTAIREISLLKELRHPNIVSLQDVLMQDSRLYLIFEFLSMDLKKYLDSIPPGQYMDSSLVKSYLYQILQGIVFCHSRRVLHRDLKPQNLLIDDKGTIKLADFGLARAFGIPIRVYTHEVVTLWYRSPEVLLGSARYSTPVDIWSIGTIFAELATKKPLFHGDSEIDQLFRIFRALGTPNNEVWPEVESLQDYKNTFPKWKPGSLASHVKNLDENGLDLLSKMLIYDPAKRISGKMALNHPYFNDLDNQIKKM

Compound | Kd (CDK1) | GI50 [1] | GI50 [2] | GI50 [3]
CCN(CCOCCOCCNS(=O)(=O)c1ccc(Nc2ncc(Br)c(Nc3cccc(F)c3C(N)=O)n2)cc1)CCOc1ccc(C(=O)c2c(-c3ccc(O)cc3)sc3cc(O)ccc23)cc1 [I-40] | 0.05 to 0.5 µM |  |  | 
CCN(CCOCCOCCOCCOCCOCCOCCNS(=O)(=O)c1ccc(Nc2ncc(Br)c(Nc3cccc(F)c3C(N)=O)n2)cc1)CCOc1ccc(C(=O)c2c(-c3ccc(O)cc3)sc3cc(O)ccc23)cc1 [I-42] | 0.05 to 0.5 µM |  |  | 
COc1cc(N2CCN(CC3(O)CCN(c4ccc(C5=N[C@@H](C)c6nnc(C)n6-c6sc(C)c(C)c65)cc4)CC3)CC2)ccc1[C@H]1c2ccc(O)cc2CC[C@H]1c1ccc(C(F)(F)F)cc1 [III-348] |  | 0.5 to 2.5 µM | 0.5 to 2.5 µM | 0.5 to 2.5 µM
COc1cc(N2CCN(CC3(O)CCN(c4ccc(C5=N[C@@H](C)c6nnc(C)n6-c6sc(C)c(C)c65)cc4)CC3)CC2)ccc1[C@@H]1c2ccc(O)cc2CC[C@@H]1c1ccc(C(F)(F)F)cc1 [III-349] |  | 0.5 to 2.5 µM | < 0.05 µM | < 0.05 µM
COc1cc(N2CCN(CC3CCN(c4ccc(C5=N[C@@H](C)c6nnc(C)n6-c6sc(C)c(C)c65)c(F)c4)CC3)CC2)ccc1[C@H]1c2ccc(O)cc2CC[C@H]1c1ccc(C(F)(F)F)cc1 [III-350] |  | > 2.5 µM | 0.05 to 0.5 µM | > 2.5 µM
COc1cc(N2CCN(CC3CCN(c4ccc(C5=N[C@@H](C)c6nnc(C)n6-c6sc(C)c(C)c65)c(F)c4)CC3)CC2)ccc1[C@@H]1c2ccc(O)cc2CC[C@@H]1c1ccc(C(F)(F)F)cc1 [III-351] |  | > 2.5 µM | < 0.05 µM | < 0.05 µM
COc1cc(N2CCC(O)(CN3CCN(c4ccc([C@H]5c6ccc(O)cc6CC[C@@H]5c5ccc(F)cc5)cc4F)CC3)CC2)ccc1C1=N[C@@H](C)c2nnc(C)n2-c2sc(C)c(C)c21 [III-352] |  | 0.5 to 2.5 µM | < 0.05 µM | < 0.05 µM
COc1cc(N2CCC(O)(CN3CCN(c4ccc([C@H]5c6ccc(O)cc6CC[C@H]5c5ccc(F)cc5)cc4F)CC3)CC2)ccc1C1=N[C@@H](C)c2nnc(C)n2-c2sc(C)c(C)c21 [III-353] |  | 0.5 to 2.5 µM | 0.05 to 0.5 µM | 0.05 to 0.5 µM
COc1cc(N2CCN(CC3(O)CCN(c4ccc(C5=N[C@@H](C)c6nnc(C)n6-c6sc(C)c(C)c65)c(F)c4)CC3)CC2)ccc1[C@H]1c2ccc(O)cc2CC[C@H]1c1ccc(C(F)(F)F)cc1 [III-354] |  | 0.5 to 2.5 µM | 0.05 to 0.5 µM | 0.05 to 0.5 µM
COc1cc(N2CCN(CC3(O)CCN(c4ccc(C5=N[C@@H](C)c6nnc(C)n6-c6sc(C)c(C)c65)c(F)c4)CC3)CC2)ccc1[C@@H]1c2ccc(O)cc2CC[C@@H]1c1ccc(C(F)(F)F)cc1 [III-355] |  | 0.5 to 2.5 µM | < 0.05 µM | < 0.05 µM
COc1cc(N2CCC(O)(CN3CCN(c4cc(F)c([C@@H]5c6ccc(O)cc6CC[C@@H]5c5ccccc5)cc4F)CC3)CC2)ccc1C1=N[C@@H](C)c2nnc(C)n2-c2sc(C)c(C)c21 [III-356] |  | 0.5 to 2.5 µM | 0.05 to 0.5 µM | < 0.05 µM
COc1cc(N2CCC(O)(CN3CCN(c4cc(F)c([C@H]5c6ccc(O)cc6CC[C@H]5c5ccccc5)cc4F)CC3)CC2)ccc1C1=N[C@@H](C)c2nnc(C)n2-c2sc(C)c(C)c21 [III-357] |  | 0.5 to 2.5 µM | 0.05 to 0.5 µM | 0.05 to 0.5 µM
COc1cc(N2CCC(O)(CN3CCN(c4cc(F)c([C@@H]5c6ccc(O)cc6CC[C@@H]5c5ccc(F)cc5)c(F)c4)CC3)CC2)ccc1C1=N[C@@H](C)c2nnc(C)n2-c2sc(C)c(C)c21 [III-358] |  | 0.5 to 2.5 µM | < 0.05 µM | < 0.05 µM
COc1cc(N2CCC(O)(CN3CCC(c4cc(F)c([C@H]5c6ccc(O)cc6CC[C@H]5c5ccc(F)cc5)c(F)c4)CC3)CC2)ccc1C1=N[C@@H](C)c2nnc(C)n2-c2sc(C)c(C)c21 [III-359] |  | 0.5 to 2.5 µM | 0.05 to 0.5 µM | 0.05 to 0.5 µM
COc1cc(N2CCN(CC3(O)CCN(c4ccc(C5=N[C@@H](C)c6nnc(C)n6-c6sc(C)c(C)c65)cc4)CC3)CC2)ccc1C1=C(c2ccccc2)CCCc2cc(C(=O)O)ccc21 [IV-66] |  | 0.5 to 2.5 µM | < 0.05 µM | < 0.05 µM
Cc1sc2c(c1C)C(c1ccc(N3CCC(O)(CN4CCN(c5cc(F)c(C6=C(c7ccccc7)CCCc7cc(C(=O)O)ccc76)cc5F)CC4)CC3)cc1)=N[C@@H](C)c1nnc(C)n1-2 [IV-67] |  | 0.5 to 2.5 µM | < 0.05 µM | < 0.05 µM
COc1cc(N2CCN(CC3(O)CCN(c4ccc(C5=N[C@@H](C)c6nnc(C)n6-c6sc(C)c(C)c65)cc4)CC3)CC2)c(F)cc1C1=C(c2ccccc2F)CCCc2cc(C(=O)O)ccc21 [IV-68] |  | 0.5 to 2.5 µM | < 0.05 µM | < 0.05 µM
Cc1sc2c(c1C)C(c1ccc(N3CCC(O)(CN4CCN(c5cc(F)c(C6=C(c7ccccc7)CCCc7cc(C(=O)O)ccc76)c(F)c5)CC4)CC3)cc1)=N[C@@H](C)c1nnc(C)n1-2 [IV-69] |  | 0.5 to 2.5 µM | < 0.05 µM | < 0.05 µM
Cc1sc2c(c1C)C(c1ccc(N3CC(CN4CCN(CC5CN(c6cc(F)c(C7=C(c8ccccc8)CCCc8cc(C(=O)O)ccc87)cc6F)C5)CC4)C3)cc1)=N[C@@H](C)c1nnc(C)n1-2 [IV-70] |  | 0.5 to 2.5 µM | < 0.05 µM | < 0.05 µM
COc1cc(C2CCN(CC3CCC4(CC3)CN(c3ccc(C5=N[C@@H](C)c6nnc(C)n6-c6sc(C)c(C)c65)cc3)C4)CC2)ccc1C1=C(c2ccccc2Cl)CCCc2cc(C(=O)O)ccc21 [IV-71] |  | 0.5 to 2.5 µM | < 0.05 µM | < 0.05 µM
Cc1sc2c(c1C)C(c1ccc(N3CC4(CC(CN5CCN(c6cc(F)c(C7=C(c8ccccc8F)CCCc8cc(C(=O)O)ccc87)cc6F)CC5)C4)C3)cc1)=N[C@@H](C)c1nnc(C)n1-2 [IV-72] |  | 0.5 to 2.5 µM | < 0.05 µM | < 0.05 µM
